From PubChem BioAssay (NCI)
“And” between values parts separate entries of the source, which are not always exact repeats. Equal entries are not always repeated.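 Grown in 96-well plates, cells were treated for 48 hours with each compound at five concentrations. Insufficient inhibition: endpoint recorded as highest concentration tested. GI50: concentration for 50% inhibition of growth. TGI: concentration producing complete growth inhibition.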

Columns and labels:
Assay in all cases: NCI-60 cell line screen, 48 h
NCI-H23 lung = tested on: NCI-H23 lung
786-0 renal = tested on: 786-0 renal
EKVX NSCLC = tested on: EKVX NSCLC
SF-295 CNS = tested on: SF-295 CNS
M14 melanoma = tested on: M14 melanoma
NCI-H460 lung = tested on: NCI-H460 lung
SK-MEL-2 melanoma = tested on: SK-MEL-2 melanoma
HT29 colon = tested on: HT29 colon
A498 renal = tested on: A498 renal
IGROV1 ovarian = tested on: IGROV1 ovarian

SMILES | GI50 (NCI-H23 lung) | TGI (NCI-H23 lung) | GI50 (786-0 renal) | TGI (786-0 renal) | GI50 (EKVX NSCLC) | TGI (EKVX NSCLC) | GI50 (SF-295 CNS) | TGI (SF-295 CNS) | GI50 (M14 melanoma) | TGI (M14 melanoma) | GI50 (NCI-H460 lung) | TGI (NCI-H460 lung) | GI50 (SK-MEL-2 melanoma) [µM] | TGI (SK-MEL-2 melanoma) [µM] | GI50 (HT29 colon) | TGI (HT29 colon) | GI50 (A498 renal) [µM] | TGI (A498 renal) | GI50 (IGROV1 ovarian) | TGI (IGROV1 ovarian)
Nc1nc(OCc2ccccc2)c2[nH]cnc2n1 | 31.6 µM and 46.9 µM | 326 µM and 229 µM | 40.1 µM and 27.8 µM | 400 µM and 96.9 µM | 64.1 µM and 32.3 µM | 307 µM and 274 µM | 35.2 µM and 24.1 µM | 395 µM and 118 µM | 25.6 µM and 26.5 µM | 204 µM and 116 µM | 35.8 µM and 37.6 µM | 400 µM and 195 µM | 25.1 | 177 | 45.8 µM and 39.9 µM | 400 µM and 175 µM | 15.2 | 183 µM and 71.3 µM | 25.3 µM and 9.01 µM | 93.3 µM and 271 µM and 34.4 µM
O=C(OCc1ccc2ccccc2n1)c1cn(C2CC2)c2cc(N3CCN(Cc4ccc5ccccc5n4)CC3)c(F)cc2c1=O | 42.3 µM | > 88.6 µM | > 49.2 µM | > 68.4 µM | 29.6 µM | > 100 µM | 35.2 µM | > 100 µM | > 56.3 µM | 99.8 µM | 39.3 µM | > 100 µM | > 100 | > 100 | 58.2 µM | > 100 µM | 25.2 | > 82.1 µM | > 93.2 µM | > 100 µM
O=C1c2ccccc2-c2cc([N+](=O)[O-])c([N+](=O)[O-])cc21 | – | 3.25 µM | – | 5.86 µM | – | 4.11 µM | – | 3.08 µM | – | 3.43 µM | – | 3.06 µM | – | 3.66 | – | 3.87 µM | – | 33.1 µM | – | 2.84 µM
CN1C(=O)N(C)C2C1NN=c1s/c(=C\c3ccc(C(F)(F)F)cc3)c(=O)n12 (stereo not given) | 2.49 µM | > 100 µM | 3.82 µM | > 100 µM | 4.17 µM | > 100 µM | 0.581 µM | 14.6 µM | 1.36 µM | > 100 µM | 0.715 µM | > 100 µM | 2.59 | 24.1 | 0.44 µM | > 100 µM | 2 | 34.6 µM | 2.65 µM | > 100 µM
NNC(=O)CS(=O)(=O)Nc1ncccn1 | – | > 100 µM | – | > 100 µM | – | > 100 µM | – | > 100 µM | – | > 100 µM | – | > 100 µM | – | > 100 | – | > 100 µM | – | > 100 µM | – | > 100 µM
